# In publication PMC10439952, “JT002, a small molecule inhibitor of the NLRP3 inflammasome for the treatment of autoinflammatory disorders” (Scientific Reports, 2023):
# Tests used:
# [1] = target: T1, caspase-1 (Homo sapiens, UniProt P29466); assay: Cell-free biochemical caspase-1 assay
# T1 construct: Reaction Biology Corporation (assay run there as a service)
# T1 sequence (P29466 120-297 limits assumed): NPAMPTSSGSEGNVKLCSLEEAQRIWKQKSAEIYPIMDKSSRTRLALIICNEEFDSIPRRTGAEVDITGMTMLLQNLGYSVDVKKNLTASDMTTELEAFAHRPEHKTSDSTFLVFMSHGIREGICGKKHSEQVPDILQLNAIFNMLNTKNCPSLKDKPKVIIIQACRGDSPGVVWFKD
# T1 sequence (P29466 317-404 limits assumed): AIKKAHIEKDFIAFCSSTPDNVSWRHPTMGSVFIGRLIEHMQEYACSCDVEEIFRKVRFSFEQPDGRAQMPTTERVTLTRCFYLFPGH
# Protocol: (§1) Cell viability was determined by addition of an equal volume of CellTiter-Glo® 2.0 reagent (Promega) to the remaining cells/supernatant in each well. Intracellular Caspase-1 activity was measured using the Caspase-Glo® assay (Promega) according to the manufacturer’s instructions. The biochemical capsase-1 assay was conducted at Reaction Biology Corporation (Malvern, USA). Human IL-1β, IL-1α, and TNFα and mouse IL-1β were measured in cell culture supernatants using homogeneous time resolved fluorescence assay kits (HTRF, Cisbio, Codolet, France). Human IL-18 was measured in cell culture supernatants using an ELISA kit (R&D Systems, Minneapolis, MN, USA). Plasma IL-1β concentrations were determined by Quantikine® ELISA (R&D Systems, Minneapolis, MN).
# [2] = tested on: TNFα production; assay: TNFα production in human PBMCs stimulated by LPS + ATP; type: cell-based; conditions: Human PBMC
# Protocol: (§2) Inflammasome activation and whole blood assays were essentially carried out as described earlier. Details can be found in the supplementary information section accompanying this publication. A protocol for blood draws from healthy volunteers and use of the blood in preclinical assays was approved by Western Institutional Review Board, Inc (Puyallup, WA, USA). Informed consent was obtained from each donor prior to the first blood draw.
# as §1
# (§3) 4H). MS: m/z 433.1 (M+H+). […]
# [3] = target: NLRP3 inflammasome (Mus musculus, UniProt Q8R4B8); assay: Inhibition of IL-1β production in mouse BMDMs stimulated by LPS + monosodium urate crystals; type: cell-based; design: host or cells: mouse PBMCs; mouse bone-marrow derived macrophages; mouse whole blood (C57BL/6 in the ex vivo study); conditions: Mouse BMDM, read-out: Geo Av IC50, IL-1β
# Protocol: as §2, §1, §3
# [4] = Pharmacokinetics in male Sprague–Dawley rats after i.v. and p.o. administration; type: in vivo
# Protocol: The pharmacokinetics (PK) of JT002 were assessed in male Sprague–Dawley rats and male Beagle dogs after intravenous (i.v.) and oral (p.o.) administration (Table 2). […] In dogs, a maximum drug plasma concentration (Cmax) of 4.0 µg/mL (9 µM) was reached 1 h after a single 1 mg oral dose. Dose-adjusted exposures (dose-adjusted AUC) from oral administration were close to identical between rat and dog (11.8 versus 11.6) (Table 2).
# [5] = Rat, single 5 mg oral dose, sodium salt form
# [6] = male, Sprague-Dawley, plasma, iv, Rat, 1 mg/kg
# [7] = male, Sprague-Dawley, plasma, po, Rat, 5 mg/kg
# Chain of NLRP3 inflammasome (Q8R4B8 whole entry): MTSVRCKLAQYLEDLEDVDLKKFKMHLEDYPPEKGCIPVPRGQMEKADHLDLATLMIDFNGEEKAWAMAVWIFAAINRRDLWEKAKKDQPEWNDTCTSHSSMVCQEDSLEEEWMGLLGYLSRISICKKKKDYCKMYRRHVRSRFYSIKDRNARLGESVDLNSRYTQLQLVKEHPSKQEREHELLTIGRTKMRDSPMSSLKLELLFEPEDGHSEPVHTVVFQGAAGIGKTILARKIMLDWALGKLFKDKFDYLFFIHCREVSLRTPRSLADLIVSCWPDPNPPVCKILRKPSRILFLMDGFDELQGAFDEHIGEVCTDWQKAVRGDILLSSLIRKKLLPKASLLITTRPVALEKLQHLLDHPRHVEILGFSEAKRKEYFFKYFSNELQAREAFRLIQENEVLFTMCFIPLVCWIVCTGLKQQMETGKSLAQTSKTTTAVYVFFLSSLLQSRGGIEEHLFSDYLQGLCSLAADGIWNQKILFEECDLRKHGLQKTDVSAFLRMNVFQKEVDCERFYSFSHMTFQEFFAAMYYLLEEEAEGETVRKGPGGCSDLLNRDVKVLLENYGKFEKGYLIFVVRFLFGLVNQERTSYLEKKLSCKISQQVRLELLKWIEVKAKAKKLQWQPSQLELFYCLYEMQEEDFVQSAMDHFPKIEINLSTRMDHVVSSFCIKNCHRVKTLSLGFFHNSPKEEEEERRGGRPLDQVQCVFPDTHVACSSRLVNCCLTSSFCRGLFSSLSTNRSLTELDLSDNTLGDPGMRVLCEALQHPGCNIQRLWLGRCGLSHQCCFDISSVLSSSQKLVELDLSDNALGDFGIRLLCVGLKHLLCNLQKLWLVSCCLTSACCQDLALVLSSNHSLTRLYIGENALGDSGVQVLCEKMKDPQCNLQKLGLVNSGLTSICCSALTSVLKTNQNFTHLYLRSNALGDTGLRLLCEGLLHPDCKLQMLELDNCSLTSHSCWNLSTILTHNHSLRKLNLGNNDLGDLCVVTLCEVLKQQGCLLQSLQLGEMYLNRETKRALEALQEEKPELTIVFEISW
structure (smiles),measurement,setting,value
CO[C@@H]1COc2c(S(=O)(=O)NC(=O)Nc3c4c(cc5c3CCC5)CCC4)cnn2C1 [JT002],direct inhibition of caspase-1 enzymatic activity,[1],not a direct inhibitor of caspase-1 enzymatic activity
same,effect on TNFα production,[2]; JT002 concentrations up to 1 µM,no effect
same,IC50,"[2]; read-out: Geo Av IC50, TNFα",> 1000 nM
same,IC50,[3],3 nM
same,%F (oral bioavailability),"[4]; Rat, p.o., 5 mg/kg, sodium salt form",73.2%
same,maximum plasma concentration,[4]; [5],36 µM
same,time of maximum plasma concentration,[4]; [5],thirty
same,AUC,[4]; [6],16200 ng·h/mL
same,Cmax,[4]; [6],10600 ng/mL
same,half-life,[4]; [6],2.8 h
same,clearance,"[4]; male, Sprague-Dawley, plasma, iv, Rat, i.v., 1 mg/kg, read-out: Clpl (plasma clearance)",1 mL/min/kg
same,Vd,"[4]; male, Sprague-Dawley, plasma, iv, Rat, i.v., 1 mg/kg, read-out: Vss",0.2 L/kg
same,AUC,[4]; [7],59200 ng·h/mL
same,Cmax,[4]; [7],15600 ng/mL
same,half-life,[4]; [7],3.4 h
same,Tmax,"[4]; male, Sprague-Dawley, plasma, po, Rat, 5 mg/kg, median",0.5 h
same,bioavailability,"[4]; male, Sprague-Dawley, rat, plasma, po, 5 mg/kg, p.o., 5 mg/kg, sodium salt form, read-out: %F (oral bioavailability)",73%
